≈ marks a conversion by molar mass, not a printed value. Like-named read-outs stand apart in the source and are kept apart here.
What was measured:
[1] = test system: Plasmodium falciparum, chloroquine-sensitive strain NF54; assay: activity against P. falciparum in vitro, strain NF54; assay type: cell-based; details: Plasmodium falciparum, read-out: IC50 (50% growth inhibition)
Summary of the method: (§1)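 IC50 values come from logit regression of radiolabelled hypoxanthine incorporation after 48 h-72 h drug exposure of asynchronous P. falciparum in human A+ red cells (0.7% parasitemia).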

[2] = test system: Plasmodium falciparum, chloroquine-sensitive strain FCH5C2; assay: activity against P. falciparum in vitro, strain FCH5C2; assay type: cell-based; details: read-out: IC50 (50% growth inhibition)
Summary of the method: as §1

[3] = test system: Plasmodium falciparum, chloroquine-sensitive strain HB3; assay: activity against P. falciparum in vitro, strain HB3; assay type: cell-based; details: read-out: IC50 (50% growth inhibition)
Summary of the method: as §1

[4] = test system: Plasmodium falciparum, chloroquine-sensitive strain RFMEF3; assay: activity against P. falciparum in vitro, strain RFMEF3; assay type: cell-based; details: read-out: IC50 (50% growth inhibition)
Summary of the method: as §1

[5] = test system: Plasmodium falciparum, chloroquine-sensitive strain Ro7 3; assay: activity against P. falciparum in vitro, strain Ro7 3; assay type: cell-based; details: read-out: IC50 (50% growth inhibition)
Summary of the method: as §1

[6] = test system: Plasmodium falciparum, chloroquine-resistant strain RFCR3; assay: activity against P. falciparum in vitro, strain RFCR3; assay type: cell-based; details: read-out: IC50 (50% growth inhibition)
Summary of the method: as §1

[7] = test system: Plasmodium falciparum, chloroquine-resistant strain ItG2 F6; assay: activity against P. falciparum in vitro, strain ItG2 F6; assay type: cell-based; details: read-out: IC50 (50% growth inhibition)
Summary of the method: as §1

[8] = test system: Plasmodium falciparum, chloroquine-resistant strain Indo; assay: activity against P. falciparum in vitro, strain Indo; assay type: cell-based; details: read-out: IC50 (50% growth inhibition)
Summary of the method: as §1

[9] = test system: Plasmodium falciparum, chloroquine-resistant strain K1; assay: activity against P. falciparum in vitro, strain K1; assay type: cell-based; details: Plasmodium falciparum, read-out: IC50 (50% growth inhibition)
Summary of the method: as §1

[10] = test system: Plasmodium falciparum, chloroquine-resistant strain W2; assay: activity against P. falciparum in vitro, strain W2; assay type: cell-based; details: read-out: IC50 (50% growth inhibition)
Summary of the method: as §1

[11] = test system: Plasmodium falciparum, chloroquine-resistant strain 7G8; assay: activity against P. falciparum in vitro, strain 7G8; assay type: cell-based; details: read-out: IC50 (50% growth inhibition)
Summary of the method: as §1

[12] = test system: Plasmodium falciparum, chloroquine-resistant strain W2 Mef; assay: activity against P. falciparum in vitro, strain W2 Mef; assay type: cell-based; details: 48 h-72 h, read-out: IC50 (50% growth inhibition)
Summary of the method: as §1

[13] = test system: Plasmodium berghei (strain ANKA); assay: activity against Plasmodium berghei in vivo (infected mice); details: for ED50: read-out: ED50 (po)
Summary of the method: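 Male albino mice (~25 g, n=5) infected i.v. with P. berghei ANKA-parasitized erythrocytes, dosed once s.c. or p.o. 24 h post-infection, first at 10 mg/kg. Giemsa tail-blood smears 48 h post-treatment (D+3); GI % is parasitemia reduction versus vehicle controls; ED50/ED90 in mg/kg by nonlinear fit.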

[14] = chloroquine-sensitive strain NF54, 48 h-72 h
[15] = chloroquine-sensitive strain FCH5C2, 48 h-72 h
[16] = chloroquine-sensitive strain HB3, 48 h-72 h
[17] = chloroquine-sensitive strain RFMEF3, 48 h-72 h
[18] = chloroquine-sensitive strain Ro7 3, 48 h-72 h
[19] = chloroquine-resistant strain RFCR3, 48 h-72 h
[20] = chloroquine-resistant strain ItG2 F6, 48 h-72 h
[21] = chloroquine-resistant strain Indo, 48 h-72 h
[22] = chloroquine-resistant strain K1, 48 h-72 h
[23] = chloroquine-resistant strain W2, 48 h-72 h
[24] = chloroquine-resistant strain 7G8, 48 h-72 h
[25] = mice, single administration po, dose reducing average erythrocyte infection rate by 50%
[26] = mice, single dose 10 mg/kg po, 48 hours after treatment (D+3), read-out: GI % at 10 mg/kg (po): percentage reduction in the parasitemia
[27] = mice, single dose 10 mg/kg sc, 48 hours after treatment (D+3), read-out: GI % at 10 mg/kg (sc): percentage reduction in the parasitemia

| Compound | IC50 [1, 14] [ng/mL] | IC50 [2, 15] [ng/mL] | IC50 [3, 16] [ng/mL] | IC50 [4, 17] [ng/mL] | IC50 [5, 18] [ng/mL] | IC50 [6, 19] [ng/mL] | IC50 [7, 20] [ng/mL] | IC50 [8, 21] [ng/mL] | IC50 [9, 22] [ng/mL] | IC50 [10, 23] [ng/mL] | IC50 [11, 24] [ng/mL] | IC50 [12] [ng/mL] | ED50 [13, 25] [mg/kg] | inhibition in vivo at 10 mg/kg [13, 26] [%] | inhibition in vivo at 10 mg/kg [13, 27] [%] | further results |
| --- | --- | --- | --- | --- | --- | --- | --- | --- | --- | --- | --- | --- | --- | --- | --- | --- |
| CN1CCC(Nc2ccnc3cc(Cl)ccc23)C1 (racemic) [Example 33a, (R,S)-(7-Chloro-quinolin-4-yl)-(1-methyl-pyrrolidin-3-yl)-amine] | 7 (≈ 0.0267 µM) | 8 (≈ 0.0306 µM) | 7 (≈ 0.0267 µM) | 7 (≈ 0.0267 µM) | 5 (≈ 0.0191 µM) | 9 (≈ 0.0344 µM) | 5 (≈ 0.0191 µM) | 9 (≈ 0.0344 µM) | 8 (≈ 0.0306 µM) | 9 (≈ 0.0344 µM) | 9 (≈ 0.0344 µM) | 7 (≈ 0.0267 µM) | 3.3 | 99.7 | 99.9 |  |
| Clc1ccc2c(N[C@@H]3CCC[C@H]3N3CCCC3)ccnc2c1 (relative stereo) [Example 11a, (1RS,2RS)-N1-(7-Chloro-quinolin-4-yl)-(2-pyrrolidin-1-yl-cyclopentyl)-amine] | 7 (≈ 0.0222 µM) | 7 (≈ 0.0222 µM) | 6 (≈ 0.019 µM) | 7 (≈ 0.0222 µM) | 4 (≈ 0.0127 µM) | 18 (≈ 0.057 µM) | 8 (≈ 0.0253 µM) | 15 (≈ 0.0475 µM) | 15 (≈ 0.0475 µM) | 17 (≈ 0.0538 µM) | 14 (≈ 0.0443 µM) | 15 (≈ 0.0475 µM) | 4.5 | 99 | 99.6 |  |
| CCN(CC)CCCC(C)Nc1ccnc2cc(Cl)ccc12 (centres unmarked) [Chloroquine diphosphate, reference compound] |  |  |  |  |  |  |  |  |  |  |  | 79 |  |  |  | IC50 ([1]; NF54, 48 h): 8 ng/mL; IC50 ([2]; 48 h): 12 ng/mL; IC50 ([3]; HB3, 48 h): 11 ng/mL; IC50 ([4]; 48 h): 14 ng/mL; IC50 ([5]; 48 h): 8 ng/mL; IC50 ([6]; 48 h): 130 ng/mL; IC50 ([7]; 48 h): 68 ng/mL; IC50 ([8]; 48 h): 52 ng/mL; IC50 ([9]; K1, 48 h): 11 ng/mL; IC50 ([10]; W2, 48 h): 123 ng/mL; IC50 ([11]; 7G8, 48 h): 81 ng/mL; ED50 ([13]; Erythrocyte, po): 2.4 mg/kg; inhibition in vivo at 10 mg/kg ([13]; po, 48 h, read-out: GI % at 10 mg/kg (po): percentage reduction in the parasitemia): 99.9%; inhibition in vivo at 10 mg/kg ([13]; sc, 48 h, read-out: GI % at 10 mg/kg (sc): percentage reduction in the parasitemia): 99.9% |
| CN1CCCC1CNc1ccnc2cc(Cl)ccc12 (centres unmarked) [Example 12a, (7-Chloro-quinolin-4-yl)-(1-methyl-pyrrolidin-2-yl-methyl)-amine] | 7 (≈ 0.0254 µM) | 8 (≈ 0.029 µM) | 10 (≈ 0.0363 µM) | 8 (≈ 0.029 µM) | 7 (≈ 0.0254 µM) | 11 (≈ 0.0399 µM) | 5 (≈ 0.0181 µM) | 11 (≈ 0.0399 µM) | 9 (≈ 0.0326 µM) | 9 (≈ 0.0326 µM) | 8 (≈ 0.029 µM) | 6 (≈ 0.0218 µM) | 4.8 | 91 | 91 |  |
| Clc1ccc2c(NCCCN3CCCCC3)ccnc2c1 [Example 18, (7-Chloro-quinolin-4-yl)-(3-piperidin-1-yl-propyl)-amine] | 4 (≈ 0.0132 µM) | 4 (≈ 0.0132 µM) | 8 (≈ 0.0263 µM) | 8 (≈ 0.0263 µM) | 7 (≈ 0.023 µM) | 8 (≈ 0.0263 µM) | 7 (≈ 0.023 µM) | 7 (≈ 0.023 µM) | 14 (≈ 0.0461 µM) | 11 (≈ 0.0362 µM) | 12 (≈ 0.0395 µM) | 12 (≈ 0.0395 µM) | 6.9 | 83 | 96 |  |
| Clc1ccc2c(NC3CCN(Cc4ccccc4)CC3)ccnc2c1 [Example 19, (1-Benzyl-piperidin-4-yl)-(7-chloro-quinolin-4-yl)-amine] | 7 (≈ 0.0199 µM) | 5 (≈ 0.0142 µM) | 4 (≈ 0.0114 µM) | 5 (≈ 0.0142 µM) | 3 (≈ 0.00853 µM) | 10 (≈ 0.0284 µM) | 6 (≈ 0.0171 µM) | 7 (≈ 0.0199 µM) | 9 (≈ 0.0256 µM) | 10 (≈ 0.0284 µM) | 7 (≈ 0.0199 µM) | 11 (≈ 0.0313 µM) | 5.3 | 99 | 99.6 |  |
| CC1CC(C)(C)C(CNc2ccnc3cc(Cl)ccc23)C1N (centres unmarked) [Example 20, (5-Amino-2,2,4-trimethyl-cyclopentylmethyl)-(7-chloro-quinolin-4yl)-amine] | 3 (≈ 0.00944 µM) | 7 (≈ 0.022 µM) | 4 (≈ 0.0126 µM) | 4 (≈ 0.0126 µM) | 7 (≈ 0.022 µM) | 14 (≈ 0.044 µM) | 7 (≈ 0.022 µM) | 8 (≈ 0.0252 µM) | 10 (≈ 0.0315 µM) | 11 (≈ 0.0346 µM) | 15 (≈ 0.0472 µM) | 14 (≈ 0.044 µM) | 4.4 | 99.9 | 99.9 |  |
| C=CCN(C)CCNc1ccnc2cc(Cl)ccc12 [Example 33, N1 -Allyl-N2-(7-chloro-quinolin-4-yl)-N1-methyl-ethane-1,2-diamine] | 8 (≈ 0.029 µM) | 15 (≈ 0.0544 µM) | 15 (≈ 0.0544 µM) | 16 (≈ 0.058 µM) | 10 (≈ 0.0363 µM) | 18 (≈ 0.0653 µM) | 9 (≈ 0.0326 µM) | 14 (≈ 0.0508 µM) | 14 (≈ 0.0508 µM) | 21 (≈ 0.0761 µM) | 18 (≈ 0.0653 µM) | 15 (≈ 0.0544 µM) | 5.9 | 97 | 97 |  |
| CN(C)C(C)(C)CNc1ccnc2cc(Cl)ccc12 [Example 33b, N1-(7-Chloro-quinolin-4-yl)-2,N2,N2-trimethyl-propane-1,2-diamine] | 8 (≈ 0.0288 µM) | 11 (≈ 0.0396 µM) | 12 (≈ 0.0432 µM) | 8 (≈ 0.0288 µM) | 4 (≈ 0.0144 µM) | 10 (≈ 0.036 µM) | 17 (≈ 0.0612 µM) | 9 (≈ 0.0324 µM) | 17 (≈ 0.0612 µM) | 9 (≈ 0.0324 µM) | 18 (≈ 0.0648 µM) | 18 (≈ 0.0648 µM) |  | 99.9 | 99.9 |  |
